{"source": "patent US8486900B2", "about": "“Method for preparing a Centella asiatica extract rich in madecassoside and in terminoloside” (Bayer Consumer Care AG, priority 2002, dated 2013)", "key": {"TIMP-1": {"test_system": "TIMP-1", "experiment": "Production of TIMP-1 by human fibroblasts in collagen gel stimulated with TNF-α", "assay_type": "cell-based", "settings": "for Production of TIMP-1, (+) TNF-α, mean: TNF-α 10 ng/ml", "procedure": "(§1) An in vitro experimental approach based on measuring the amounts of MMP-1 and of TIMP-1 released into the culture media by human fibroblasts cultured in the absence and in the presence of the products, and stimulated with TNF-α, is proposed. The study was carried out on human fibroblast cultures established from skin biopsies according to the explant method. The fibroblasts are cultured, according to the techniques used in the laboratory, in DMEM medium (sold under the name Invitrogen™ by the company Life Technologies) supplemented with fetal calf serum (10% FCS) and with antibiotics, at […] in a humid air-CO2 (95%-5%) atmosphere.\n(§2) After incubation, the plates are emptied. The cultures are rinsed and then exposed to a solution of TNF-α (10 ng/ml) in the absence (control cultures) or in the presence (treated cultures) of the various concentrations of each product being studied. After the addition of TNF-α, the cultures are returned to the incubator at 37° C. for 24 h. At the end of incubation, the media are removed, centrifuged and aliquoted for assaying of MMP-1 and of TIMP-1.\nThe amount of TIMP-1, an inhibitor specific for MMP-1, was also measured in the supernatants of the cultures treated with asiaticoside or the madecassoside-terminoloside mixture."}, "human fibroblasts": {"test_system": "human fibroblasts", "experiment": "Cytotoxicity, Neutral Red assay on human fibroblasts", "settings": "for Viability (24 h) / Viability (48 h): DMSO 1%", "procedure": "A stock solution of the product was prepared beforehand in DMSO and then diluted in culture medium in order to obtain the various test solutions (final concentration of DMSO: 1%). A broad range of 8 concentrations [from 5 to 1000 μg/ml] was initially studied in order to close in the maximum NonCytotoxic Dose (NCD).\nA stock solution of the product was prepared beforehand in DMSO and then diluted in culture medium in order to obtain the various test solutions (final concentration of the DMSO: 1%). A broad range of 8 concentrations (between […]) was studied on human fibroblasts in order to close in the maximum NonCytotoxic Dose (NCD)."}, "MMP-1": {"test_system": "MMP-1", "experiment": "TNF-α-induced production of MMP-1 by human fibroblasts in collagen gel (dermis equivalent)", "assay_type": "cell-based", "settings": "for Production of MMP-1, (+) TNF-α, mean: TNF-α 10 ng/ml, 24 h pretreatment + 24 h; for decrease in the amount of MMP-1: relative to (+)TNF-α control", "procedure": "as §1\nHuman dermal fibroblasts cultured as a monolayer are detached from their support by trypsinization and suspended in complete medium. After counting, the cell suspension is diluted in culture medium and added, in defined proportions, to a mixture of concentrated culture medium (1.76×DMEM), fetal calf serum (FCS) and type I collagen (acetic acid extract from rat tail tendons). The mixture is then poured, under cold conditions, into 24-well plates in a proportion of 1 ml/well. The dermous equivalents are then placed at 37° C. and incubated for 72 h, in an air-CO2 (95%/5%) atmosphere. The gels gradually contract under the action of the fibroblasts.\n72 hours after seeding, the culture medium is removed and replaced with new medium containing the various products being studied (“preventative” treatment). The gels are returned to the incubator at 37° C. and incubated, for 24 hours, in an air-CO2 (95%/5%) atmosphere.\nas §2\n(§3) The study was carried out on human fibroblasts cultured in a three-dimensional gel of collagen (dermous equivalent).\n1. Treatment of cells for 24 h, before induction of MMP-1 with TNF-α.\n2. Induction of MMP-1 by the addition of TNF-α (10 ng/ml). Incubation for 24 h.\n(§4) 3. Measurement of cell viability and of the amounts of MMP-1 in the control and treated culture supernatants."}, "[1]": {"test_system": "human fibroblasts cultured in a three-dimensional gel of collagen", "experiment": "Cell viability (Neutral Red assay) of collagen gel fibroblast cultures after TNF-α", "assay_type": "cell-based", "settings": "TNF-α 10 ng/ml, 0.2-1.0 mg/ml", "procedure": "as §3, §4\nCell Viability (Neutral Red Assay)"}, "[2]": {"experiment": "Immunomodulatory activity"}}, "data": [{"molecule": "C[C@H]1[C@H](C)CC[C@]2(C(=O)O[C@@H]3O[C@H](CO[C@@H]4O[C@H](CO)[C@@H](O[C@@H]5O[C@H](C)[C@H](O)[C@@H](O)[C@H]5O)[C@H](O)[C@H]4O)[C@@H](O)[C@H](O)[C@H]3O)CC[C@]3(C)C(=CC[C@@H]4[C@@]5(C)C[C@@H](O)[C@H](O)[C@@](C)(CO)[C@@H]5CC[C@]43C)[C@H]12", "note": "[Asiaticoside, asiaticoside]", "values": [{"measurement": "Production of TIMP-1, (+) TNF-α, mean", "setting": "TIMP-1; 0.2 mg/ml", "result": 51.01, "unit": "ng TIMP-1/ml"}, {"measurement": "Production of TIMP-1, (+) TNF-α, mean", "setting": "TIMP-1; 0.5 mg/ml", "result": 50.36, "unit": "ng TIMP-1/ml"}, {"measurement": "Production of TIMP-1, (+) TNF-α, mean", "setting": "TIMP-1; 1.0 mg/ml", "result": 48.82, "unit": "ng TIMP-1/ml"}, {"measurement": "effect with respect to the production of TIMP-1", "setting": "TIMP-1; within the range of concentrations tested (0.2-1.0 mg/ml)", "result": "no effect"}, {"measurement": "Maximum NonCytotoxic Dose (NCD)", "setting": "human fibroblasts", "result": 1, "unit": "mg/mL"}, {"measurement": "decrease of cell viability", "setting": "human fibroblasts; 48 h, 1 mg/ml", "result": 12, "unit": "%"}, {"measurement": "Viability (24 h)", "setting": "human fibroblasts; 10", "result": 98, "unit": "%"}, {"measurement": "Viability (24 h)", "setting": "human fibroblasts; 25", "result": 101, "unit": "%"}, {"measurement": "Viability (24 h)", "setting": "human fibroblasts; 50", "result": 101, "unit": "%"}, {"measurement": "Viability (24 h)", "setting": "human fibroblasts; 100", "result": 101, "unit": "%"}, {"measurement": "Viability (24 h)", "setting": "human fibroblasts; 250", "result": 101, "unit": "%"}, {"measurement": "Viability (24 h)", "setting": "human fibroblasts; 500", "result": 97, "unit": "%"}, {"measurement": "Viability (24 h)", "setting": "human fibroblasts; 1000", "result": 93, "unit": "%"}, {"measurement": "Viability (48 h)", "setting": "human fibroblasts; 48 h, 10", "result": 108, "unit": "%"}, {"measurement": "Viability (48 h)", "setting": "human fibroblasts; 48 h, 25", "result": 107, "unit": "%"}, {"measurement": "Viability (48 h)", "setting": "human fibroblasts; 48 h, 50", "result": 106, "unit": "%"}, {"measurement": "Viability (48 h)", "setting": "human fibroblasts; 48 h, 75", "result": 104, "unit": "%"}, {"measurement": "Viability (48 h)", "setting": "human fibroblasts; 48 h, 100", "result": 102, "unit": "%"}, {"measurement": "Viability (48 h)", "setting": "human fibroblasts; 48 h, 250", "result": 99, "unit": "%"}, {"measurement": "Viability (48 h)", "setting": "human fibroblasts; 48 h, 500", "result": 93, "unit": "%"}, {"measurement": "Viability (48 h)", "setting": "human fibroblasts; 48 h, 750", "result": 90, "unit": "%"}, {"measurement": "Viability (48 h)", "setting": "human fibroblasts; 48 h, 1000", "result": 88, "unit": "%"}, {"measurement": "cytotoxic effect", "setting": "human fibroblasts; contact for 24 h, 5 to 1000 μg/ml", "result": "no significant cytotoxic effect"}, {"measurement": "nontoxic concentrations", "setting": "human fibroblasts; incubation for 48 h", "result": "below 1 mg/ml"}, {"measurement": "Production of MMP-1, (+) TNF-α, mean", "setting": "MMP-1; 0.2 mg/ml", "result": 9.96, "unit": "ng MMP-1/ml"}, {"measurement": "Production of MMP-1, (+) TNF-α, mean", "setting": "MMP-1; 0.5 mg/ml", "result": 6.18, "unit": "ng MMP-1/ml"}, {"measurement": "Production of MMP-1, (+) TNF-α, mean", "setting": "MMP-1; 1.0 mg/ml", "result": 3.40, "unit": "ng MMP-1/ml"}, {"measurement": "decrease in the amount of MMP-1", "setting": "MMP-1; C1 = 0.2 mg/ml", "result": 18, "unit": "%"}, {"measurement": "decrease in the amount of MMP-1", "setting": "MMP-1; C2 = 0.5 mg/ml", "result": 49, "unit": "%"}, {"measurement": "decrease in the amount of MMP-1", "setting": "MMP-1; C3 = 1.0 mg/ml", "result": 72, "unit": "%"}, {"measurement": "solubility", "setting": "Solubility", "result": "organosoluble"}, {"measurement": "viability of the treated cultures after treatment with TNF-α", "setting": "[1]", "result": "not modified"}]}, {"molecule": "terminolic acid", "values": [{"measurement": "immunomodulatory activity", "setting": "[2]", "result": "no immunomodulatory activity"}]}]}
